Results published in patent US20230096766A1, “AMINO ACID HAVING FUNCTIONAL GROUP CAPABLE OF INTERMOLECULAR HYDROGEN BONDING, PEPTIDE COMPOUND CONTAINING SAME AND METHOD FOR PRODUCTION THEREOF” (Chugai Seiyaku Kabushiki Kaisha, priority 2018, published 2023).
*1 amine or outer side, *2 acyl side, *3 side chain or, on linkers, in order; H or OH if unused. Where a SMILES comes first, the peptide text is derived from it. Bridges are numbered along the chain shown (N, C = ends). [ ]: non-standard residue; d: D form. The star is where a group is joined. ξ: configuration not given here. Phe(3-OMe,4-CONHMs) = COc1cc(C[C@H](N)C(=O)O)ccc1C(=O)NS(C)(=O)=O; Phe(4-COOH) = N[C@@H](Cc1ccc(C(=O)O)cc1)C(=O)O; NMePhe(3-Cl) = CN[C@@H](Cc1cccc(Cl)c1)C(=O)O; NMeF = CN[C@@H](Cc1ccccc1)C(=O)O; NMeGABA = CN(CCCC(=O)[*:2])[*:1]; NMeI = CC[C@H](C)[C@H](NC)C(=O)O; CH2CH(OH)CF3 = OC(C*)C(F)(F)F; NMeL = CN[C@@H](CC(C)C)C(=O)O; Butyl(3R-OH) = C[C@@H](O)CC*; NMeV = CN[C@H](C(=O)O)C(C)C; NMeAbu = CC[C@H](NC)C(=O)O; NMeA = CN[C@@H](C)C(=O)O; Piperidide = C1CCN(*)CC1; CH2CMe2OH = CC(C)(O)C*; CH2CONHMe = CNC(=O)C*; NBuGly = CCCCNCC(=O)O; ξL = CC(C)CC(N)C(=O)O; NPrGly = CCCNCC(=O)O; N(OH)Me = CN(O)*; Sar = CNCC(=O)O; tBu = CC(C)(C)*

Experiment: in vitro
Conditions: human, Caco-2, Caco-2 (cm/sec)

| Structure (SMILES) | Papp [×10⁻⁶ cm/s] |
| --- | --- |
| COc1cc(C[C@@H]2NC(=O)[C@H](C(C)C)N(C)C(=O)[C@H](CC(C)C)N(C)C(=O)C(CC(C)C)NC(=O)[C@H](CC(C)C)N(C)C(=O)[C@H](CC(C)C)N(C)C(=O)[C@H](C)NC(=O)[C@H](CC(C)C)N(C)C(=O)C[C@@H](C(=O)N3CCCCC3)NC(=O)[C@H](CC(C)C)N(C)C(=O)CN(C)C2=O)ccc1C(=O)NS(C)(=O)=O (stereo partly drawn) [AP142] ([NMeL]A[NMeL][NMeL][ξL][NMeL][NMeV][Phe(3-OMe,4-CONHMs)][Sar][NMeL]D-Piperidide; lactam N-11) | 0.63 |
| CC(C)C[C@H]1C(=O)N[C@@H]([C@@H](C)O)C(=O)N(C)[C@@H](CC(C)C)C(=O)N(C)[C@@H](CC(C)C)C(=O)N[C@H](C(=O)N2CCCCC2)CC(=O)N(C)CCCC(=O)N(C)[C@@H](C(C)C)C(=O)N[C@@H](COCC[C@@H](C)O)C(=O)N(C)[C@@H](Cc2ccccc2)C(=O)N(C)[C@@H](Cc2cccc(Cl)c2)C(=O)N[C@@H](COC(C)(C)C)C(=O)N1C [AP110] ([NMeGABA][NMeV]S(Butyl(3R-OH))[NMeF][NMePhe(3-Cl)]S(tBu)[NMeL]T[NMeL][NMeL]D-Piperidide; lactam N-11) | 0.23 |
| CCCCN1CC(=O)N(C)[C@@H](CC(C)C)C(=O)N[C@@H](COC(C)(C)C)C(=O)N(C)[C@@H]([C@@H](C)CC)C(=O)N(C)[C@@H](CC(C)C)C(=O)N[C@H](C(=O)N2CCCCC2)CC(=O)N[C@H](C)C(=O)N(C)[C@@H](Cc2ccccc2)C(=O)N[C@@H](Cc2ccc(C(=O)N(C)O)cc2)C(=O)N(C)[C@@H](CC(C)C)C(=O)N[C@@H]([C@@H](C)O)C1=O [AP250] ([dA][NMeF][Phe(4-COOH)](N(OH)Me)[NMeL]T[NBuGly][NMeL]S(tBu)[NMeI][NMeL]D-Piperidide; lactam N-11) | 0.12 |
| CCCCN1CC(=O)N(C)[C@@H](Cc2ccccc2)C(=O)N(C)[C@@H](CC(C)C)C(=O)N[C@@H](CC(C)C)C(=O)N(C)[C@@H](CC(C)C)C(=O)N[C@H](C(=O)N2CCCCC2)CC(=O)N(C)CC(=O)N(C)[C@@H](CC(C)C)C(=O)N[C@@H](Cc2ccc(O)cc2)C(=O)N(C)[C@@H](CC)C(=O)N[C@@H]([C@@H](C)O)C1=O [Compound F07] ([Sar][NMeL]Y[NMeAbu]T[NBuGly][NMeF][NMeL]L[NMeL]D-Piperidide; lactam N-11) | 0.54 |
| CC(C)C[C@@H]1NC(=O)[C@H](Cc2ccccc2)N(C)C(=O)[C@@H](C(C)C)NC(=O)C[C@@H](C(=O)N2CCCCC2)NC(=O)[C@H](CC(C)C)N(C)C(=O)[C@H](Cc2cccc(Cl)c2)N(C)C(=O)[C@H](COCC(C)(C)O)NC(=O)[C@H](CC(C)C)N(C)C(=O)CN(C)C(=O)[C@H]([C@@H](C)O)NC(=O)[C@H](CC(C)C)N(C)C1=O [AP02] ([dV][NMeF]L[NMeL]T[Sar][NMeL]S(CH2CMe2OH)[NMePhe(3-Cl)][NMeL]D-Piperidide; lactam N-11) | 1.3 |
| CC(C)C[C@H]1C(=O)N[C@@H](COC(C)(C)C)C(=O)N(C)[C@@H](Cc2ccccc2)C(=O)N(C)[C@@H](CC(C)C)C(=O)N[C@H](C(=O)N2CCCCC2)CC(=O)N[C@H](C(C)C)C(=O)N(C)[C@@H](Cc2ccccc2)C(=O)N[C@@H](C(C)C)C(=O)N(C)[C@@H](Cc2ccccc2)C(=O)N[C@@H]([C@@H](C)O)C(=O)N(C)CC(=O)N1C [pd210] ([dV][NMeF]V[NMeF]T[Sar][NMeL]S(tBu)[NMeF][NMeL]D-Piperidide; lactam N-11) | 1.6 |

Same assay, conditions: human, Caco-2, Caco-2 (cm/sec) Papp

| Structure (SMILES) | Papp [×10⁻⁶ cm/s] |
| --- | --- |
| CC(C)C[C@@H]1NC(=O)[C@H](CC(C)C)N(C)C(=O)[C@@H](C)NC(=O)C[C@@H](C(=O)N2CCCCC2)NC(=O)[C@H](Cc2ccccc2)N(C)C(=O)[C@H](Cc2ccccc2)N(C)C(=O)[C@H](C)N(C)C(=O)[C@H]([C@@H](C)O)NC(=O)[C@H](Cc2ccccc2)N(C)C(=O)[C@H](COC(C)(C)C)NC(=O)[C@H](Cc2ccccc2)N(C)C1=O [pd234] ([dA][NMeL]L[NMeF]S(tBu)[NMeF]T[NMeA][NMeF][NMeF]D-Piperidide; lactam N-11) | 0.15 |

Same assay, conditions: human, Caco-2, Caco-2 (membrane permeability)

| Structure (SMILES) | Papp [×10⁻⁶ cm/s] |
| --- | --- |
| CC(C)C[C@H]1C(=O)N[C@@H](COCC(O)C(F)(F)F)C(=O)N(C)[C@@H](Cc2cccc(Cl)c2)C(=O)N(C)[C@@H](Cc2ccccc2)C(=O)N[C@@H](COC(C)(C)C)C(=O)N(C)[C@@H](CC(C)C)C(=O)N[C@@H]([C@@H](C)O)C(=O)N(C)[C@@H](CC(C)C)C(=O)N(C)[C@@H](CC(C)C)C(=O)N[C@H](C(=O)N2CCCCC2)CC(=O)N(C)CCCC(=O)N1C (stereo partly drawn) [Compound C02] ([NMeGABA][NMeL]S(CH2CH(OH)CF3)[NMePhe(3-Cl)][NMeF]S(tBu)[NMeL]T[NMeL][NMeL]D-Piperidide; lactam N-11) | 0.19 |
| CCCCN1CC(=O)N(C)[C@@H](Cc2ccccc2)C(=O)N[C@@H]([C@@H](C)CC)C(=O)N(C)[C@@H](CC(C)C)C(=O)N[C@@H]([C@@H](C)O)C(=O)N(CCC)CC(=O)N(C)[C@@H](Cc2ccccc2)C(=O)N(C)[C@@H](CC(C)C)C(=O)N[C@@H](COCC(=O)NC)C(=O)N(C)[C@@H](CC(C)C)C(=O)N[C@H](C(=O)N2CCCCC2)CC1=O [Compound I06] ([NBuGly][NMeF]I[NMeL]T[NPrGly][NMeF][NMeL]S(CH2CONHMe)[NMeL]D-Piperidide; lactam N-11) | 0.24 |
| CCCCN1CC(=O)N(C)[C@@H](Cc2ccccc2)C(=O)N[C@@H](CCC(=O)NC)C(=O)N(C)[C@@H](CC(C)C)C(=O)N[C@@H]([C@@H](C)O)C(=O)N(CCCC)CC(=O)N(C)[C@@H](Cc2ccccc2)C(=O)N(C)[C@@H](CC(C)C)C(=O)N[C@@H](CC(C)C)C(=O)N(C)[C@@H]([C@@H](C)CC)C(=O)N[C@H](C(=O)N2CCCCC2)CC1=O [Compound J05] ([NBuGly][NMeF]E(NHMe)[NMeL]T[NBuGly][NMeF][NMeL]L[NMeI]D-Piperidide; lactam N-11) | 0.052 |
